Reference: patent US10761001B2, “Devices and methods for tension measurements and applications of same” (Vanderbilt University, priority 2016, dated 2020)
“Also recorded” adds a separate entry of the source.

Experiments:
[1] = system: engineered cardiac tissue construct (ECTC) from neonatal rat ventricular cells; assay: I-Wire ECTC elasticity measurement (stretch-stress curve, Young's modulus); type: cell-based
Description: (§1) Method step 2. Cell isolation and culturing: Neonatal rat ventricular cells were obtained from 2-day-old neonatal Sprague-Dawley rats using a trypsin digestion protocol with agitation overnight at 4° C. and plating cells for 40 minutes at 37° C. The population of isolated cells is heterogeneous and besides cardiomyocytes includes cardiofibroblasts, endothelial cells, and vascular smooth muscle cells. The presence of the different cell types is important for formation of the extracellular matrix and tissue structure. The isolated cells were mixed with fibrinogen (5 mg/mL, Sigma-Aldrich, St. Louis, Mo., USA)/Matrigel™ (100 μL/mL, BD Biosciences, San Jose, Calif., USA) plus thrombin (15 μL, 100 U/mL, Sigma-Aldrich, St. Louis, Mo., USA), and pipetted in a casting mold (FIG. 21A). Thereafter, cells were kept at 37° C. in a 5% CO2 humidified cell culture incubator for 1 hour. When fibrinogen was polymerized, 2 mL of cell culture media was added per well. The culture medium consisted of DMEM (Gibco Fisher Scientific, Waltham, Mass., USA), 10% horse serum (Gibco Fisher Scientific, Waltham, Mass., USA), 2% chick embryo extract (US Biological Fisher Scientific, Waltham, Mass., USA), 1% penicillin/streptomycin (Gibco Fisher Scientific, Waltham, Mass., USA), 10 μg/mL insulin (Sigma-Aldrich, St. Louis, Mo., USA), 400 μM tranexamic acid (Sigma-Aldrich, St. Louis, Mo., USA), and 33 μg/mL aprotinin (Sigma-Aldrich, St. Louis, Mo., USA). Over time, the preparation condensed to form elongated muscle fibers of 350-400 μm in diameter and 7 mm long. After 13-15 days of culturing, the contractility and stiffness of the ECTC (FIGS. 21B and 21C) could be measured using our microscope-based optical setup (FIG. 3A).
Method step 3. […]
At first, the linear part of the ECTC stretch-force curve was fitted using a linear equation and the amount of change of ECTC length was calculated. […]

[2] = system: isolated mice CMs; conditions: after application of blebbistatin; cited from earlier work
[3] = system: engineered cardiac tissue construct (ECTC) from neonatal rat ventricular cells; assay: I-Wire ECTC contractility under β-adrenergic stimulation; type: cell-based
Description: as §1
Method step 3. Registration system for the contraction recording: To apply tensional force to the ECTC and detect contraction, a flexible PEEK tube of 365 μm in outer diameter and 120 μm bore (Putnam Plastics, Dayville, Conn., USA) and 28 mm length was glued to a Plexiglas cantilever adjuster attached to a cantilever support plate with two embedded position-control magnets (FIG. 3A). The stiffness of the probe was roughly matched to that of the ECTC; one might choose to use either a softer or stiffer probe to study ECTCs with different mechanical properties. The cantilever support plate with cantilever adjuster and flexible probe was mounted with a friction fit to the condenser of the inverted optical microscope (Eclipse Ti, Nikon, Melville, N.Y., USA) equipped with a digital camera system (Zyla sCMOS Camera, Andor Technology, Belfast, Northern Ireland). […]
Method step 4. Registration of action potential and reconstruction of electrical and mechanical restitution: Action potentials were recorded by utilizing floating micropipettes filled with 3-M KCl. […]

SMILES: Cc1ccc2c(c1)C(=O)C1(O)CCN(c3ccccc3)C1=N2 (centres unmarked) [blebbistatin]
- decrease of ECTC stiffness ([1]; 6 μM blebbistatin): 23%
- Young's modulus of the ECTC ([1]; 6 μM blebbistatin, untreated (relaxation) 13.4±2.5 kPa, N=5, P<0.05): 10.3±2.8 kPa
- slope of the fitted straight line of the stretch-stress curve ([1]; blebbistatin-treated ECTCs, 6 μM, systolic 4.9, diastolic 15.1 %/mN): 17.5 %/mN
- lowering of the diastolic stress [2]: 30%

SMILES: CC(C)NCC(O)c1ccc(O)c(O)c1 (centres unmarked) [isoproterenol]
- contraction duration ([3]; 1 μM isoproterenol (β-adrenergic stimulation)): shortening
- contraction velocity ([3]; 1 μM isoproterenol, applied force exceeded 0.233 mN, P<0.05, N=7): statistically significant acceleration
- developed force ([3]; 1 μM isoproterenol, applied transverse forces greater than 0.156 mN, P<0.05, N=7): significant increase
- force exerted by the ECTC during contraction and relaxation ([3]; 1 μM isoproterenol, separate analysis of systole and diastole): significant change occurs only in the phase of relaxation; also recorded: significant effect of the isoproterenol only during the diastolic phase
